Test results taken from patent publication US6737383B1, “Herbicidal oxadiazolidines” (priority 1999, dated 2004).

Experiments:
bedstraw = test: Test B pre/postemergence bedstraw; type: in vivo, Galium aparine
Outline: (§1)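 Test chemicals in a non-phytotoxic solvent mixture with surfactant were sprayed preemergence onto planted seeds and postemergence onto plants 2 to 18 cm tall (1- to 4-leaf stage). After twelve to sixteen days in a greenhouse, injury was visually rated against untreated controls from 0 (no effect) to 10 (complete control).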

cocklebur = test: Test B pre/postemergence cocklebur; type: in vivo, Xanthium strumarium; conditions: for Cocklebur plant response rating: scale of 0 to 10 where 0 is no effect and 10 is complete control
Outline: as §1

corn = test: Test B pre/postemergence corn; type: in vivo, Zea mays; conditions: for Corn plant response rating: scale of 0 to 10 where 0 is no effect and 10 is complete control
Outline: as §1

crabgrass = test: Test B pre/postemergence crabgrass; type: in vivo, Digitaria sanguinalis; conditions: for Crabgrass plant response rating: scale of 0 to 10 where 0 is no effect and 10 is complete control
Outline: as §1

giant foxtail = test: Test B pre/postemergence giant foxtail; type: in vivo, Setaria faberii; conditions: for Giant foxtail plant response rating: scale of 0 to 10 where 0 is no effect and 10 is complete control
Outline: as §1

morningglory = test: Test B pre/postemergence morningglory; type: in vivo, Ipomoea hederacea; conditions: for Morningglory plant response rating: scale of 0 to 10 where 0 is no effect and 10 is complete control
Outline: as §1

pigweed = test: Test B pre/postemergence pigweed; type: in vivo, Amaranthus retroflexus; conditions: for Redroot pigweed plant response rating: scale of 0 to 10 where 0 is no effect and 10 is complete control
Outline: as §1

rape = test: Test B pre/postemergence rape; type: in vivo, Brassica napus; conditions: for Rape plant response rating: scale of 0 to 10 where 0 is no effect and 10 is complete control
Outline: as §1

soybean = test: Test B pre/postemergence soybean; type: in vivo, Glycine max; conditions: for Soybean plant response rating: scale of 0 to 10 where 0 is no effect and 10 is complete control
Outline: as §1

velvetleaf = test: Test B pre/postemergence velvetleaf; type: in vivo, Abutilon theophrasti; conditions: for Velvetleaf plant response rating: scale of 0 to 10 where 0 is no effect and 10 is complete control
Outline: as §1

wheat = test: Test B pre/postemergence wheat; type: in vivo, Triticum aestivum; conditions: for Wheat plant response rating: scale of 0 to 10 where 0 is no effect and 10 is complete control
Outline: as §1

wild oat = test: Test B pre/postemergence wild oat; type: in vivo, Avena fatua; conditions: for Wild oats plant response rating: scale of 0 to 10 where 0 is no effect and 10 is complete control
Outline: as §1

purple nutsedge = test: Test B pre/postemergence purple nutsedge; type: in vivo, Cyperus rotundus; conditions: for Nutsedge plant response rating: scale of 0 to 10 where 0 is no effect and 10 is complete control
Outline: as §1

rice = test: Test B flood test rice; type: in vivo, Oryza sativa
Outline: (§2)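 Each value is a visual injury score relative to controls, with 10 meaning complete control and 0 no effect. Evaluation took place twelve to sixteen days after the 2-leaf-stage plants were treated and kept in the greenhouse.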

smallflower flatsedge = test: Test B flood test smallflower flatsedge; type: in vivo, Cyperus difformis
Outline: as §2

duck salad = test: Test B flood test duck salad; type: in vivo, Heteranthera limosa
Outline: as §2

[1] = Postemergence, Rate 125 g/ha, scale 0 to 10, 0 is no effect, 10 is complete control
[2] = Preemergence, Rate 62 g/ha, scale 0 to 10 (0 no effect, 10 complete control)
[3] = Rate 500 g/ha, Postemergence, scale 0 to 10, 0 no effect, 10 complete control
[4] = Postemergence (flood test), Rate 125 g/ha, scale 0 to 10, 0 is no effect, 10 is complete control
[5] = Rate 62 g/ha, Postemergence (flood test species), scale of 0 to 10 where 0 is no effect and 10 is complete control
[6] = Rate 62 g/ha, flood test species, Pre-emergence, visual evaluation after twelve to sixteen days
[7] = Rate 125 g/ha, Pre-emergence, flood test species, scale 0 to 10 where 0 is no effect and 10 is complete control
[8] = Rate 250 g/ha, Pre-emergence, flood-test species, scale 0 to 10, 0 is no effect, 10 is complete control
[9] = Rate 500 g/ha, Pre-emergence, flood test species, scale 0 to 10 (0 no effect, 10 complete control)

Compound: CCC(CC)n1c(=O)on(C(=O)N(c2ccc(F)cc2)C(C)C)c1=O [Compound 358]
- Plant response rating, Bedstraw (bedstraw; [1]): 2
- Plant response rating, Bedstraw (bedstraw; [2]): 0
- Bedstraw plant response rating (0 to 10 scale) (bedstraw; Preemergence, Rate 125 g/ha): 9
- Bedstraw plant response rating (bedstraw; Preemergence, Rate 250 g/ha, scale of 0 to 10 where 0 is no effect and 10 is complete control): 10
- Bedstraw plant response rating (bedstraw; Preemergence, Rate 500 g/ha, scale of 0 to 10 where 0 is no effect and 10 is complete control): 10
- Bedstraw plant response rating (bedstraw; Rate 62 g/ha, Postemergence, scale of 0 to 10 where 0 is no effect and 10 is complete control): 0
- Plant response rating, Bedstraw (bedstraw; Rate 250 g/ha, Postemergence, scale of 0 to 10 where 0 is no effect and 10 is complete control): 3
- Plant response rating, Bedstraw (bedstraw; [3]): 6
- Plant response rating, Cocklebur (cocklebur; [1]): 0
- Plant response rating, Cocklebur (cocklebur; [2]): 0
- Cocklebur plant response rating (0 to 10 scale) (cocklebur; Preemergence, Rate 125 g/ha): 0
- Cocklebur plant response rating (cocklebur; Preemergence, Rate 250 g/ha): 0
- Cocklebur plant response rating (cocklebur; Preemergence, Rate 500 g/ha): 0
- Cocklebur plant response rating (cocklebur; Rate 62 g/ha, Postemergence): 0
- Plant response rating, Cocklebur (cocklebur; [3]): 0
- Plant response rating, Corn (corn; [1]): 0
- Plant response rating, Corn (corn; [2]): 0
- Corn plant response rating (0 to 10 scale) (corn; Preemergence, Rate 125 g/ha): 0
- Corn plant response rating (corn; Preemergence, Rate 250 g/ha): 2
- Corn plant response rating (corn; Preemergence, Rate 500 g/ha): 6
- Corn plant response rating (corn; Rate 62 g/ha, Postemergence): 0
- Plant response rating, Corn (corn; [3]): 0
- Plant response rating, Crabgrass (crabgrass; [1]): 0
- Plant response rating, Crabgrass (crabgrass; [2]): 9
- Crabgrass plant response rating (0 to 10 scale) (crabgrass; Preemergence, Rate 125 g/ha): 10
- Crabgrass plant response rating (crabgrass; Preemergence, Rate 250 g/ha): 10
- Crabgrass plant response rating (crabgrass; Preemergence, Rate 500 g/ha): 10
- Crabgrass plant response rating (crabgrass; Rate 62 g/ha, Postemergence): 0
- Plant response rating, Crabgrass (crabgrass; [3]): 7
- Plant response rating, Giant foxtail (giant foxtail; [1]): 8
- Plant response rating, Giant foxtail (giant foxtail; [2]): 10
- Giant foxtail plant response rating (0 to 10 scale) (giant foxtail; Preemergence, Rate 125 g/ha): 10
- Giant foxtail plant response rating (giant foxtail; Preemergence, Rate 250 g/ha): 10
- Giant foxtail plant response rating (giant foxtail; Preemergence, Rate 500 g/ha): 10
- Giant foxtail plant response rating (giant foxtail; Rate 62 g/ha, Postemergence): 3
- Plant response rating, Giant foxtail (giant foxtail; [3]): 8
- Plant response rating, Morningglory (morningglory; [1]): 5
- Plant response rating, Morningglory (morningglory; [2]): 0
- Morningglory plant response rating (0 to 10 scale) (morningglory; Preemergence, Rate 125 g/ha): 0
- Morningglory plant response rating (morningglory; Preemergence, Rate 250 g/ha): 3
- Morningglory plant response rating (morningglory; Preemergence, Rate 500 g/ha): 5
- Morningglory plant response rating (morningglory; Rate 62 g/ha, Postemergence): 3
- Plant response rating, Morningglory (morningglory; [3]): 7
- Plant response rating, Redroot pigweed (pigweed; [1]): 3
- Plant response rating, Redroot pigweed (pigweed; [2]): 7
- Redroot pigweed plant response rating (0 to 10 scale) (pigweed; Preemergence, Rate 125 g/ha): 9
- Redroot pigweed plant response rating (pigweed; Preemergence, Rate 250 g/ha): 10
- Redroot pigweed plant response rating (pigweed; Preemergence, Rate 500 g/ha): 10
- Redroot pigweed plant response rating (pigweed; Rate 62 g/ha, Postemergence): 3
- Plant response rating, Redroot pigweed (pigweed; [3]): 6
- Plant response rating, Rape (rape; [1]): 1
- Plant response rating, Rape (rape; [2]): 0
- Rape plant response rating (0 to 10 scale) (rape; Preemergence, Rate 125 g/ha): 0
- Rape plant response rating (rape; Preemergence, Rate 250 g/ha): 4
- Rape plant response rating (rape; Preemergence, Rate 500 g/ha): 4
- Rape plant response rating (rape; Rate 62 g/ha, Postemergence): 1
- Plant response rating, Rape (rape; [3]): 4
- Plant response rating, Soybean (soybean; [1]): 4
- Plant response rating, Soybean (soybean; [2]): 0
- Soybean plant response rating (0 to 10 scale) (soybean; Preemergence, Rate 125 g/ha): 0
- Soybean plant response rating (soybean; Preemergence, Rate 250 g/ha): 0
- Soybean plant response rating (soybean; Preemergence, Rate 500 g/ha): 1
- Soybean plant response rating (soybean; Rate 62 g/ha, Postemergence): 4
- Plant response rating, Soybean (soybean; [3]): 7
- Plant response rating, Velvetleaf (velvetleaf; [1]): 2
- Plant response rating, Velvetleaf (velvetleaf; [2]): 3
- Velvetleaf plant response rating (0 to 10 scale) (velvetleaf; Preemergence, Rate 125 g/ha): 4
- Velvetleaf plant response rating (velvetleaf; Preemergence, Rate 250 g/ha): 5
- Velvetleaf plant response rating (velvetleaf; Preemergence, Rate 500 g/ha): 8
- Velvetleaf plant response rating (velvetleaf; Rate 62 g/ha, Postemergence): 2
- Plant response rating, Velvetleaf (velvetleaf; [3]): 3
- Plant response rating, Wheat (wheat; [1]): 3
- Plant response rating, Wheat (wheat; [2]): 0
- Wheat plant response rating (0 to 10 scale) (wheat; Preemergence, Rate 125 g/ha): 0
- Wheat plant response rating (wheat; Preemergence, Rate 250 g/ha): 1
- Wheat plant response rating (wheat; Preemergence, Rate 500 g/ha): 3
- Wheat plant response rating (wheat; Rate 62 g/ha, Postemergence): 2
- Plant response rating, Wheat (wheat; [3]): 5
- Plant response rating, Wild oats (wild oat; [1]): 3
- Plant response rating, Wild oats (wild oat; [2]): 4
- Wild oats plant response rating (0 to 10 scale) (wild oat; Preemergence, Rate 125 g/ha): 5
- Wild oats plant response rating (wild oat; Preemergence, Rate 250 g/ha): 9
- Wild oats plant response rating (wild oat; Preemergence, Rate 500 g/ha): 10
- Wild oats plant response rating (wild oat; Rate 62 g/ha, Postemergence): 0
- Plant response rating, Wild oats (wild oat; [3]): 7
- Plant response rating, Nutsedge (purple nutsedge; [1]): 0
- Plant response rating, Nutsedge (purple nutsedge; [2]): 0
- Nutsedge plant response rating (0 to 10 scale) (purple nutsedge; Preemergence, Rate 125 g/ha): 0
- Nutsedge plant response rating (purple nutsedge; Preemergence, Rate 250 g/ha): 0
- Nutsedge plant response rating (purple nutsedge; Preemergence, Rate 500 g/ha): 0
- Nutsedge plant response rating (purple nutsedge; Rate 62 g/ha, Postemergence): 0
- Plant response rating, Nutsedge (purple nutsedge; [3]): 0
- Plant response rating, Rice (rice; [4]): 0
- Rice plant response rating (rice; [5]): 0
- Plant response rating, Rice (0 to 10 scale, 0 is no effect, 10 is complete control) (rice; [6]): 0
- Rice plant response rating (rice; [7]): 0
- Rice plant response rating (rice; [8]): 0
- Plant response rating, Rice (rice; Rate 500 g/ha, listed under Postemergence (flood test species), scale 0 to 10, 0 no effect, 10 complete control): 0
- Rice plant response rating (rice; [9]): 8
- Plant response rating, S. Flatsedge (smallflower flatsedge; [4]): 0
- S. Flatsedge plant response rating (smallflower flatsedge; [5]): 0
- Plant response rating, S. Flatsedge (0 to 10 scale, 0 is no effect, 10 is complete control) (smallflower flatsedge; [6]): 0
- S. Flatsedge plant response rating (smallflower flatsedge; [7]): 6
- S. Flatsedge plant response rating (smallflower flatsedge; [8]): 8
- S. Flatsedge plant response rating (smallflower flatsedge; [9]): 8
- Plant response rating, Ducksalad (duck salad; [4]): 2
- Ducksalad plant response rating (duck salad; [5]): 0
- Plant response rating, Ducksalad (0 to 10 scale, 0 is no effect, 10 is complete control) (duck salad; [6]): 0
- Ducksalad plant response rating (duck salad; [7]): 0
- Ducksalad plant response rating (duck salad; [8]): 0
- Ducksalad plant response rating (duck salad; [9]): 2
